{"source": "patent US12264185B2", "about": "“Stabilized BCL9 peptides for treatment of aberrant Wnt signaling” (WntRx Pharmaceuticals Inc., priority 2015, dated 2025)", "key": {"[1]": {"test": "FIG. 10B", "conditions": "for MRTINF | hr: in vivo", "protocol": "Each data point represents N=2. Mice were administered 5 mg/kg, 10 mg/kg, or 15 mg/kg intravenously, 5 mg/kg intramuscularly, 10 mg/kg intraperitoneally, or 10 mg/kg subcutaneously."}, "[2]": {"test": "FIG. 9B", "description": "Table printed on a drawing sheet, FIG. 9B\nFirst reader's note: Plasma PK parameters derived from the concentration-time curves plotted in FIG. 9A on the same sheet."}, "[3]": {"tested_on": "Colo320DM cells", "test": "cells", "protocol": "Colo320DM cells were selected for this assay as the proliferation of this particular cell line is dependent on BCL9 and β-catenin. ICG001, a known Wnt/β-catenin small molecule inhibitor, was used as a positive control. The cell viability at each treatment condition was analyzed using CellTiterGlo luminescent cell viability assay (Promega) according to the manufacturer's protocols.\nFollowing the procedure described in Example 2, the ability of WX-035 to inhibit cell growth was tested in a cell viability assay using Colo320DM cells."}, "[4]": {"tested_on": "HCT116 cells", "assay_type": "cell-based", "conditions": "HCT116 cells, CellTiterGlo", "protocol": "The additional polypeptides were tested in a CellTiterGlo luminescent cell viability assay (Promega). ICG001 was used as a positive control in this assay."}, "[5]": {"tested_on": "Wnt/β-catenin signaling", "test": "GeneBLAzer beta-lactamase Wnt transcription reporter assay, LEF/TCF-bla HCT-116 cells", "assay_type": "cell-based", "conditions": "for IC50: LEF/TCF-bla HCT-116 cells", "description": "ICG001 was used as a comparison. The GeneBLAzer uses CellSensor™ LEF/TCF-bla HCT-116 cells that contain a beta-lactamase (BLA) reporter gene under the control of the β-catenin/LEF/TCF response element stably integrated into HCT-116 cells, as shown in FIG. 5A. These cells constitutively express beta-lactamase and can be used to detect agonists and antagonists of the Wnt/β-catenin signaling pathway. The GeneBLAzer assay provides a ratiometric reporter response involving a two-color (blue/green) readout of stimulated and unstimulated cells.\nLEF/TCF-bla HCT-116 cells were plated in assay medium (Invitrogen) on clear-bottom plates and incubated overnight at 37° C. […] Cells were next incubated with the Wnt agonist, mWnt3a (provided in the GeneBLAzer kit) for 5 hours at 37° C. Substrate mixture (containing LiveBLAzer™ B/G substrate that employs CCF4-AM, a FRET substrate for beta-lactamase) was added to the wells, and the plate was incubated for 2.5 hours at room temperature in the dark. Black-walled, clear-bottom, 384-well plates (Corning Costar) were used with scanning done with a Spectramax M2. Plates were scanned first (Scan 1 in the blue channel) with excitation filter 409/20 nm and emission filter 460/40 nm. Plates were then scanned (Scan 2 in the green channel) with excitation filer 409/20 nm and emission filter 530/30 nm."}, "[6]": {"tested_on": "CT26.WT cells", "assay_type": "cell-based", "protocol": "One of the stabilized polypeptides generated in Example 10 was tested in a cell viability assay and compared against WX-035. WX-037 was selected for this comparison study. The cell viability assay was performed with CT26.WT cells (ATCC), following the procedures described in Example 2. Briefly, 4000 cells per well of each plate were seeded with 50 μL opti-MEM medium. Each polypeptide, WX-035 or WX-037, was diluted with 2% FBS containing opti-MEM medium using 1 μL of 200× concentrated polypeptide in 99 μL of the medium. Each stock solution was diluted for testing a wide range of concentrations. 50 μL of 2× concentrated polypeptide was added to each well of the plate. Three days after the polypeptide addition, the viability of cells was measured using CellTiterGlo assay, according to the manufacturer's protocol."}, "[7]": {"tested_on": "CT26 cells", "test": "cells", "conditions": "Mus musculus, CT26, read-out: IC50, CT26 cell growth", "protocol": "CT26 cells were grown in F-bottom plates over 5 days. […] CellTiterGlo (Promega) cell viability assay. […] Doxorubicin is a known inhibitor of cell growth and was included as a control."}, "[8]": {"conditions": "read-out: IC50, Wnt transcription"}}, "note": "“And” between values parts separate entries of the source, which are not always exact repeats. Identical values can stand only once. Like-named read-outs stand apart in the source and are kept apart here. Bridge positions count the residues as written; N and C are the ends. Square brackets hold non-standard residues; d marks the D form. Peptide text beside a SMILES is read from it. 2Nal = N[C@@H](Cc1ccc2ccccc2c1)C(=O)O; R5 = C=CCCC[C@@](C)(N)C(=O)O; S5 = C=CCCC[C@](C)(N)C(=O)O; βAla = NCCC(=O)O", "data": [{"molecule": "CC[C@H](C)[C@@H]1NC(=O)[C@@](C)(NC(=O)[C@H](CCCNC(=N)N)NC(=O)[C@H](CC(C)C)NC(=O)[C@@H](NC(=O)[C@H](CCC(N)=O)NC(=O)[C@H](CC(C)C)NC(C)=O)[C@@H](C)O)CCCC=CCCC[C@@](C)(C(=O)N[C@@H](CC(C)C)C(=O)N[C@@H](Cc2ccc3ccccc3c2)C(N)=O)NC(=O)[C@H](CCCNC(=N)N)NC(=O)[C@H](CCC(N)=O)NC1=O", "note": "(single isomer, unassigned) [WX-024 5mg/kg, IV]", "values": [{"measurement": "AUCINF |", "setting": "[1]", "result": 136, "unit": "µg·h/mL"}, {"measurement": "AUClast |", "setting": "[1]", "result": 136, "unit": "µg·h/mL"}, {"measurement": "CL | L/hr/kg", "setting": "[1]", "result": 0.0368, "unit": "L/h/kg"}, {"measurement": "CL | mL/min/kg", "setting": "[1]", "result": 0.613, "unit": "mL/min/kg"}, {"measurement": "VSS |", "setting": "[1]", "result": 0.0693, "unit": "L/kg"}, {"measurement": "MRT", "setting": "[1]; female, Balb/c, mouse, blood, iv", "result": 1.88, "unit": "h"}, {"measurement": "half-life", "setting": "[1]; female, Balb/c, mouse, blood, iv, read-out: TERMINAL t1/2 | hr (converted)", "result": 1.99, "unit": "h"}]}, {"molecule": "CC[C@H](C)[C@@H]1NC(=O)[C@@](C)(NC(=O)[C@H](CCCNC(=N)N)NC(=O)[C@H](CC(C)C)NC(=O)[C@@H](NC(=O)[C@H](CCC(N)=O)NC(=O)[C@H](CC(C)C)NC(C)=O)[C@@H](C)O)CCCC=CCCC[C@@](C)(C(=O)N[C@@H](CC(C)C)C(=O)N[C@@H](Cc2ccc3ccccc3c2)C(N)=O)NC(=O)[C@H](CCCNC(=N)N)NC(=O)[C@H](CCC(N)=O)NC1=O", "note": "(single isomer, unassigned) [WX-024 10mg/kg, IV]", "values": [{"measurement": "AUCINF |", "setting": "[1]", "result": 233, "unit": "µg·h/mL"}, {"measurement": "AUClast |", "setting": "[1]", "result": 233, "unit": "µg·h/mL"}, {"measurement": "CL | L/hr/kg", "setting": "[1]", "result": 0.0428, "unit": "L/h/kg"}, {"measurement": "CL | mL/min/kg", "setting": "[1]", "result": 0.713, "unit": "mL/min/kg"}, {"measurement": "VSS |", "setting": "[1]", "result": 0.0788, "unit": "L/kg"}, {"measurement": "MRTINF | hr", "setting": "[1]; mouse, iv", "result": 1.84, "unit": "h"}]}, {"molecule": "CC[C@H](C)[C@@H]1NC(=O)[C@@](C)(NC(=O)[C@H](CCCNC(=N)N)NC(=O)[C@H](CC(C)C)NC(=O)[C@@H](NC(=O)[C@H](CCC(N)=O)NC(=O)[C@H](CC(C)C)NC(C)=O)[C@@H](C)O)CCCC=CCCC[C@@](C)(C(=O)N[C@@H](CC(C)C)C(=O)N[C@@H](Cc2ccc3ccccc3c2)C(N)=O)NC(=O)[C@H](CCCNC(=N)N)NC(=O)[C@H](CCC(N)=O)NC1=O", "note": "(single isomer, unassigned) [WX-024 15mg/kg, IV]", "values": [{"measurement": "AUCINF |", "setting": "[1]", "result": 260, "unit": "µg·h/mL"}, {"measurement": "AUClast |", "setting": "[1]", "result": 260, "unit": "µg·h/mL"}, {"measurement": "CL | L/hr/kg", "setting": "[1]", "result": 0.0576, "unit": "L/h/kg"}, {"measurement": "CL | mL/min/kg", "setting": "[1]", "result": 0.96, "unit": "mL/min/kg"}, {"measurement": "VSS |", "setting": "[1]", "result": 0.0946, "unit": "L/kg"}, {"measurement": "MRTINF | hr", "setting": "[1]; mouse, iv", "result": 1.64, "unit": "h"}]}, {"molecule": "CC[C@H](C)[C@@H]1NC(=O)[C@@](C)(NC(=O)[C@H](CCCNC(=N)N)NC(=O)[C@H](CC(C)C)NC(=O)[C@@H](NC(=O)[C@H](CCC(N)=O)NC(=O)[C@H](CC(C)C)NC(C)=O)[C@@H](C)O)CCCC=CCCC[C@@](C)(C(=O)N[C@@H](CC(C)C)C(=O)N[C@@H](Cc2ccc3ccccc3c2)C(N)=O)NC(=O)[C@H](CCCNC(=N)N)NC(=O)[C@H](CCC(N)=O)NC1=O", "note": "(single isomer, unassigned) [WX-024, LQTLRXaa1IQRXaa2L]", "values": [{"measurement": "T1/2 | hr", "setting": "[2]", "result": "2.44 h and 2.59 h and 2.51 h"}]}, {"molecule": "O=c1[nH]cc(F)c(=O)[nH]1", "note": "[5-FU, 5-fluorouracil, reference compound]", "values": [{"measurement": "IC50", "setting": "[3]; Homo sapiens, COLO 320DM, read-out: IC50, cell viability", "result": 12100, "unit": "nM"}]}, {"molecule": "O=C1[C@H](Cc2ccc(O)cc2)N2C(=O)CCN(C(=O)NCc3ccccc3)[C@H]2CN1Cc1cccc2ccccc12", "note": "[ICG001, reference compound]", "values": [{"measurement": "effect on cell viability / cell growth", "setting": "[3]; Colo320DM cells", "result": "capable of inducing cell death in a dose dependent manner"}, {"measurement": "IC50", "setting": "[4]; read-out: IC50, cell viability", "result": 2170, "unit": "nM"}, {"measurement": "IC50", "setting": "[5]; [8]", "result": 1060, "unit": "nM"}]}, {"molecule": "Cc1cc(-c2ncc(CC(=O)Nc3ccc(-c4cnccn4)cn3)cc2C)ccn1", "note": "[LGK-974, reference compound]", "values": [{"measurement": "IC50", "setting": "[5]; Homo sapiens, read-out: IC50, Wnt/β-catenin transcription", "result": "> 10000", "unit": "nM"}]}, {"molecule": "CC[C@H](C)[C@@H]1NC(=O)[C@@](C)(NC(=O)[C@H](CCCNC(=N)N)NC(=O)[C@H](CC(C)C)NC(C)=O)CCCC=CCCC[C@@](C)(C(=O)N[C@@H](CC(C)C)C(N)=O)NC(=O)[C@H](CCCNC(=N)N)NC(=O)[C@H](CCC(N)=O)NC1=O", "note": "[WX-020, LRXaa1IQRXaa2L] (Ac-LR[S5]IQR[S5]L-NH2; staple 3-7)", "values": [{"measurement": "IC50", "setting": "[3]", "result": 12400, "unit": "nM"}, {"measurement": "inhibition of Wnt transcription among domain mapping polypeptides", "setting": "[5]; HCT116 cells", "result": "most effective polypeptide in inhibiting the Wnt transcription"}, {"measurement": "IC50", "setting": "[5]; [8]", "result": 1580, "unit": "nM"}]}, {"molecule": "CC(=O)N[C@]1(C)CCCC=CCCC[C@@](C)(C(=O)N[C@@H](CC(=O)O)C(=O)N[C@@H](CCCNC(=N)N)C(=O)N[C@@]2(C)CCCC=CCCC[C@@](C)(C(=O)N[C@@H](CC(=O)O)C(=O)N[C@@H](Cc3c[nH]cn3)C(=O)NCCC(=O)NCCC(N)=O)NC(=O)[C@H](CCCNC(=N)N)NC(=O)[C@H](CCC(N)=O)NC(=O)[C@H](CC(=O)O)NC2=O)NC(=O)[C@H](CCC(N)=O)NC(=O)[C@H](CC(=O)O)NC1=O", "note": "[WX-037, Xaa1DQXaa2DRXaa3DQRXaa4DH] (Ac-[R5]DQ[S5]DR[S5]DQR[S5]DH[βAla][βAla]-NH2; staple 1-4, 7-11)", "values": [{"measurement": "IC50", "setting": "[6]", "result": "> 32000", "unit": "nM"}]}, {"molecule": "COc1cccc2c1C(=O)c1c(O)c3c(c(O)c1C2=O)C[C@@](O)(C(=O)CO)C[C@@H]3O[C@H]1C[C@H](N)[C@H](O)[C@H](C)O1", "note": "[doxorubicin]", "values": [{"measurement": "IC50", "setting": "[7]", "result": 7520, "unit": "nM"}]}, {"molecule": "C#Cc1cccc(Nc2ncnc3cc(OCCOC)c(OCCOC)cc23)c1", "note": "[erlotinib]", "values": [{"measurement": "IC50", "setting": "[7]", "result": "> 2000", "unit": "nM"}]}, {"molecule": "stapled, Ac N-terminus, C-terminus 2-Nal-β-Ala-β-Ala-NH2 (Ac-LR[S5]IQR[S5]L[2Nal][βAla][βAla]-NH2; staple 3-7; SMILES CC[C@H](C)[C@@H]1NC(=O)[C@@](C)(NC(=O)[C@H](CCCNC(=N)N)NC(=O)[C@H](CC(C)C)NC(C)=O)CCCC=CCCC[C@@](C)(C(=O)N[C@@H](CC(C)C)C(=O)N[C@@H](Cc2ccc3ccccc3c2)C(=O)NCCC(=O)NCCC(N)=O)NC(=O)[C@H](CCCNC(=N)N)NC(=O)[C@H](CCC(N)=O)NC1=O) [WX-021, LRXaa1IQRXaa2L]", "values": [{"measurement": "inhibition of cell growth", "setting": "[4]", "result": "particularly effective"}, {"measurement": "IC50", "setting": "[5]; [8]", "result": 764, "unit": "nM"}]}]}
